According to ChEMBL document CHEMBL1156618, “Design, synthesis and in vitro antitumor activity of 4-aminoquinoline and 4-aminoquinazoline derivatives targeting EGFR tyrosine kinase” (Bioorg Med Chem, 2008):
Calls of active or inactive are those of the source. No cut-off for these calls is given here.

Tested on: MCF7
Experiment: Cytotoxicity against human MCF7 cells after 48 hrs by SRB assay
Assay type: functional, cell-based

SMILES: CCOc1ccc2nc(C)cc(Nc3ccc(S(=O)(=O)Nc4cc(C)on4)cc3)c2c1
- IC50: 13.8 µM

SMILES: CCOc1ccc2nc(C)cc(Nc3cc(OC)c(OC)cc3C(=O)OC)c2c1
- IC50: 1.67 µM

SMILES: CCOc1ccc2nc(C)cc(Nc3ccc(S(=O)(=O)Nc4nccs4)cc3)c2c1
- Activity: inactive

SMILES: CCOc1ccc2nc(C)cc(Nc3ccc(Cl)cc3Cl)c2c1
- IC50: 4.38 µM

SMILES: CCOc1ccc2nc(C)cc(Nc3ccc(S(=O)(=O)Nc4ncccn4)cc3)c2c1
- IC50: 3.96 µM

SMILES: COc1cc2nc(Cl)nc(Nc3ccc(S(=O)(=O)Nc4nccs4)cc3)c2cc1OC
- IC50: 0.13 µM

SMILES: CCOc1ccc2nc(C)cc(N3CCN(C(=O)c4ccco4)CC3)c2c1
- IC50: 4.31 µM

SMILES: COc1cc2nc(Cl)nc(N3CCN(S(=O)(=O)c4ccc(C)cc4)CC3)c2cc1OC
- IC50: 1.08 µM

SMILES: CCOc1ccc2nc(C)cc(Nc3cccc(O)c3)c2c1
- IC50: 2.84 µM

SMILES: CCOc1ccc2nc(C)cc(Nc3ccc(S(=O)(=O)NC(=N)N)cc3)c2c1
- IC50: 19.2 µM

SMILES: COc1cc2nc(Cl)nc(Nc3ccc(S(=O)(=O)Nc4cc(C)on4)cc3)c2cc1OC
- IC50: 1.98 µM
